{"source": "patent US10016400B2", "about": "“Composition including rapamycin as active ingredient for preventing or treating hearing loss” (AJOU UNIVERSITY INDUSTRY—ACADEMIC COOPERATION FOUNDATION, priority 2014, dated 2018)", "key": {"[1]": {"tested_on": "HEI-OC1 cells", "assay": "RPM effects on apoptosis, MTS assay", "format": "cell-based", "experimental": "(§1) An auditory cell line, e.g., House-Ear Institute-organ of Corti 1 (HEI-OC1), that expresses auditory genes was used. HEI-OC1 cells were cultured under conditions of a temperature of 33° C. and a CO2 (10%) by adding 10% fetal bovine serum (FBS) and 25 U/ml interferon-gamma to a Dulbecco's modified Eagle's Medium (DMEM) including high concentrations of glutamine. At about 90% confluence of the cultured cells on a bottom surface of a plate, the cell density was maintained within an appropriate range by performing serial subcultures using 2.5% Trypsin-EDTA.\nHere, RPM was used as an inducer of autophagy and chloroquine (CQ) was used as an inhibitor of autophagy in terms of pretreatment and combination treatment."}, "[2]": {"settings": "in vivo; cited from earlier work"}, "[3]": {"tested_on": "auditory outer and inner hair cells", "assay": "Autophagy in cochlear hair cells, immunohistochemistry with LC3 antibodies", "format": "in vivo", "settings": "GM treatment, rat cochleae", "experimental": "A total of 24 rats were classified into one group of 12 rats treated with 50 pM of rapamycin (RRM) and another group of 12 rats treated with 100 pM of RPM. […] To allow RPM to be well absorbed inside the tympanum, the rats were placed in a lateral decubitus position and stabilized. Meanwhile, rats of which right ears were treated with physiological saline were classified as a control group.\nTo observe autophagy in the auditory outer hair cells, the cochleae of the rats of Example 1 were subjected to immunohistochemistry using microtubule-associated LC3 (Microtubule-associated protein 1A/1B-light chain 3) antibodies."}, "[4]": {"tested_on": "HEI-OC1 cells", "assay": "Autophagy in auditory cell line (LC3 staining, western blot, real-time quantitative PCR)", "format": "cell-based", "settings": "HEI-OC1 cells treated with GM", "experimental": "as §1\nTo observe autophagy in the GM-treated auditory cells, the HEI-OC1 cells, which are the auditory cell line of Example 1-2, were subjected to immunohistochemistry using LC3 antibody, thereby staining autophagosomes, the expression of autophagy-related proteins, e.g., LC3, Beclin-1, and RAS-related GTP-binding proteins (Rab7) was confirmed according to the western blot, and the processes of autophagy were analyzed through real-time quantitative PCR."}}, "data": [{"compound": "CCN(CC)CCCC(C)Nc1ccnc2cc(Cl)ccc12", "note": "(centres unmarked) [CQ, chloroquine]", "values": [{"measurement": "apoptosis with GM and autophagy inhibitor", "setting": "[1]; 5 mM GM with 25 μM CQ", "value": "more likely to be undergone the apoptosis"}]}, {"compound": "CO[C@H]1C[C@@H]2CC[C@@H](C)[C@@](O)(O2)C(=O)C(=O)N2CCCC[C@H]2C(=O)O[C@H]([C@H](C)C[C@@H]2CC[C@@H](O)[C@H](OC)C2)CC(=O)[C@H](C)/C=C(\\C)[C@@H](O)[C@@H](OC)C(=O)[C@H](C)C[C@H](C)/C=C/C=C/C=C/1C", "note": "[RPM, rapamycin]", "values": [{"measurement": "LD50 value (dose lethal to 50% of the population)", "setting": "[2]", "value": "at least 2 g/kg"}]}, {"compound": "gentamicin [GM]", "values": [{"measurement": "autophagosomes having a double membrane in auditory outer and inner hair cells", "setting": "[3]", "value": "increase in autophagosomes"}, {"measurement": "number of autophagosomes", "setting": "[4]", "value": "increased over time"}, {"measurement": "HEI-OC1 cells undergone apoptosis", "setting": "[1]; 5 mM of GM for 48 hours", "value": "about 25%"}]}]}
